Data taken from patent US20260131007A1, “Mannose 6-Phosphate Receptor Binding Compounds for the Degradation of Extracellular Proteins” (Avilar Therapeutics, Inc., priority 2023, published 2026).
Counter-ions that a name gives are not always drawn.

Each molecule was assayed against T1, Insulin-like growth factor 2 receptor (IGF-1IR, cation-independent mannose-6-phosphate receptor, CI-MPR; hIGF-IIR) (Homo sapiens, UniProt P11717) (assay: HTRF-based ternary complex inhibition assay for relative affinity of IGF-IIR ligands). Details: competition with MTAC probe for His-tagged hIGF-IIR; biotinylated IgG1; apparent binding affinity; read-out: TCF INH (HTRF) IC50.
T1 construct: purchased R&D Systems 6418-GR
Experimental: The apparent binding affinity of Insulin-like growth factor 2 receptor (IGF-1IR, also called the cation- independent mannose-6-phosphate receptor (CI-MPR)) ligands was determined indirectly by competing with a probe molecule for binding to IGF-1IR. The probe is a Mannose 6-Phosphate Ligand (“Ligand”) and binds to hIGF-IIR and IgG1 to form a hIGF-IIR: Ligand: IgG1 ternary complex. The ternary complex was detected by an HTRF readout. The ternary complex is disrupted in the presence of IGF-1IR ligand, resulting in decreased HTRF signal. IGF-1IR ligands of 3-fold dilution series were prepared from 10 mM DMSO stock on a 384-well LDV microplate using Echo Acoustic Liquid Handler (Beckman Coulter Life Sciences) followed by transfer of 600 nL of the solutions to an OptiPlate 384-well microplate (PerkinElmer, 6007290). Manose-6-phosphate (M6P; J&K, 530168) and glucose-6-phosphate (G6P; Sigma, V900924) were prepared from 100 mM stock in the same manner and were used as positive and negative controls, respectively. The wells used as 0% and 100% inhibition controls were prepared by adding 600 nL DMSO. 20 nL of 50 μM MTAC probe was transferred to all wells except the wells used as 100% Inhibition control. 9.4 μL working solution containing 65.1 nM of Biotinylated-IgG1 (Viva 20211108) and 65.1 nM of His-tagged hIGF-IIR (R&D Systems, 6418-GR) in assay buffer 50 mM Tris, pH 7.5, 150 mM NaCl, 50 mM CaCl2, 0.01% Tween-20 was transferred to all wells. The plate was incubated at room temperature for 60 min with gentle shaking to allow molecular interaction to reach equilibration. Following this, 10 μL of HTRF detection solution containing 15 nM Streptavidin-d2 (PerkinElmer, 610SADLA) and 0.7 nM MAb Anti 6HIS—Tb cryptate (PerkinElmer, 61HISTLA) in PPI Terbium detection buffer (PerkinElmer, 61DB10RDF) was added. The assay plate was incubated at room temperature with gentle shaking for 60 min to allow HTRF signal to develop. The plate was gently spun on a centrifuge then placed on a EnVision plate reader (Perkin Elmer, EnVision 2104) to read fluorescence ratio of 665 nm/615 nm. Percent inhibitions were calculated with this equation: % I=100* [1−(X−100% I/(0% I−100% I)] where X is the […] in the presence of IGF-1IR ligand. The apparent binding affinity (presented as IC50) was calculated by fitting the % inhibition data with a non-linear 4-parameter inhibition equation using GraphPad Prism (GraphPad Software, LLC; version 9.4.1).

O=P(O)(O)CC[C@H]1O[C@H](Oc2ccc3c(c2)Cc2cc(O)ccc2-3)[C@@H](O)[C@@H](O)[C@@H]1O [Compound A22, (2-((2R,3S,4S,5S,6R)-3,4,5-trihydroxy-6-((7-hydroxy-9H-fluoren-2-yl)oxy)tetrahydro-2H-pyran-2-yl)ethyl)phosphonic acid] and Nc1ccc2c(c1)Cc1cc(O[C@H]3O[C@H](CCP(=O)(O)O)[C@@H](O)[C@H](O)[C@@H]3O)ccc1-2 [Compound A76, (2-((2R,3S,4S,5S,6R)-6-((7-amino-9H-fluoren-2-yl)oxy)-3,4,5-trihydroxytetrahydro-2H-pyran-2-yl)ethyl)phosphonic acid] cannot be ordered by IC50: under 10 µM for the first, under 10 µM for the second.

C#CCP(=O)(O)CC[C@H]1OC(Oc2ccc(OC)cc2)[C@@H](O)[C@@H](O)[C@@H]1O (stereo partly drawn) [Compound A77, prop-2-yn-1-yl(2-((2R,3S,4S,5S)-3,4,5-trihydroxy-6-(4-methoxyphenoxy)tetrahydro-2H-pyran-2-yl)ethyl)phosphinic acid] and COc1ccc(OC2O[C@H](CCP(=O)(O)CC#C[Si](C)(C)C)[C@@H](O)[C@H](O)[C@@H]2O)cc1 (stereo partly drawn) [Compound A75, 2-[(2R,3S,4S,5S)-3,4,5-trihydroxy-6-(4-methoxyphenoxy)tetrahydropyran-2-yl]ethyl-(3-trimethylsilylprop-2-ynyl)phosphinic acid] fall in the same range of IC50: 10 to 100 µM for the first, 10 to 100 µM for the second.

First: C#CCCOC1O[C@H](CCS(=O)(=O)Nc2ncccn2)[C@@H](O)[C@H](O)[C@@H]1O (stereo partly drawn) [Compound A14, 2-((2R,3S,4S,5S)-6-(but-3-yn-1-yloxy)-3,4,5-trihydroxytetrahydro-2H-pyran-2-yl)-N-(pyrimidin-2-yl)ethane-1-sulfonamide]
Second: CO[C@@H]1O[C@H](CCS(=O)(=O)Nc2ncccn2)[C@@H](O)[C@H](O)[C@@H]1O [Compound A8, N-(pyrimidin-2-yl)-2-((2R,3S,4S,5S,6R)-3,4,5-trihydroxy-6-methoxytetrahydro-2H-pyran-2-yl)ethane-1-sulfonamide]
The IC50 of the first is higher: 100 to 300 µM for the first, 10 to 100 µM for the second. The second is the more potent here.

O=P(O)(O)CC[C@H]1O[C@H](c2cn(-c3ccccc3)nn2)[C@@H](O)[C@@H](O)[C@@H]1O [Compound A84, (2-((2R,3S,4S,5S,6R)-3,4,5-trihydroxy-6-(1-phenyl-1H-1,2,3-triazol-4-yl)tetrahydro-2H-pyran-2-yl)ethyl)phosphonic acid] and O=P(O)(O)CC[C@H]1OC(c2cc3c(cc2O)Cc2ccccc2-3)[C@@H](O)[C@@H](O)[C@@H]1O (stereo partly drawn) [Compound A15, (2-((2R,3S,4S,5S)-3,4,5-trihydroxy-6-(2-hydroxy-9H-fluoren-3-yl)tetrahydro-2H-pyran-2-yl)ethyl)phosphonic acid] cannot be ordered by IC50: under 10 µM for the first, under 10 µM for the second.

First: O=P(O)(CC[C@H]1OC(O)[C@@H](O)[C@@H](O)[C@@H]1O)Cc1c(F)cccc1F (stereo partly drawn) [Compound A60, (2,6-difluorobenzyl) (2-((2R,3S,4S,5S)-3,4,5,6-tetrahydroxytetrahydro-2H-pyran-2-yl)ethyl)phosphinic acid]
Second: O=P(O)(CC[C@H]1O[C@H](Oc2ccccc2)[C@@H](O)[C@@H](O)[C@@H]1O)Cc1c(F)cccc1F [Compound A42, (2,6-difluorobenzyl) (2-((2R,3S,4S,5S,6R)-3,4,5-trihydroxy-6-phenoxytetrahydro-2H-pyran-2-yl)ethyl)phosphinic acid]
The IC50 of the first is higher: 10 to 100 µM for the first, under 10 µM for the second. The second is the more potent here.

Compared with O=C(NS(=O)(=O)CC[C@H]1O[C@H](O)[C@@H](O)[C@@H](O)[C@@H]1O)c1ccccc1 [Compound A12, N-((2-((2R,3S,4S,5S,6S)-3,4,5,6-tetrahydroxytetrahydro-2H-pyran-2-yl)ethyl)sulfonyl)benzamide], O=C(NS(=O)(=O)CC[C@H]1O[C@H](O)[C@@H](O)[C@@H](O)[C@@H]1O)c1ccno1 [Compound A11, N-((2-((2R,3S,4S,5S,6S)-3,4,5,6-tetrahydroxytetrahydro-2H-pyran-2-yl)ethyl)sulfonyl)isoxazole-5-carboxamide] is lower in IC50: 100 to 300 µM for the first, 10 to 100 µM for the second.

COc1ccc(OC2O[C@H](CCP(=O)(O)Cc3ccccn3)[C@@H](O)[C@H](O)[C@@H]2O)cc1 (stereo partly drawn) [Compound A50, (pyridin-2-ylmethyl) (2-((2R,3S,4S,5S)-3,4,5-trihydroxy-6-(4-methoxyphenoxy)tetrahydro-2H-pyran-2-yl)ethyl)phosphinic acid] and COc1ccc(OC2O[C@H](CCP(=O)(O)Cc3ccccc3)[C@@H](O)[C@H](O)[C@@H]2O)cc1 (stereo partly drawn) [Compound A81, benzyl(2-((2R,3S,4S,5S)-3,4,5-trihydroxy-6-(4-methoxyphenoxy)tetrahydro-2H-pyran-2-yl)ethyl)phosphinic acid] cannot be ordered by IC50: under 10 µM for the first, under 10 µM for the second.

COc1ccc(OC2O[C@H](CCP(=O)(O)CC3CCCC3)[C@@H](O)[C@H](O)[C@@H]2O)cc1 (stereo partly drawn) [Compound A82, (cyclopentylmethyl) (2-((2R,3S,4S,5S)-3,4,5-trihydroxy-6-(4-methoxyphenoxy)tetrahydro-2H-pyran-2-yl)ethyl)phosphinic acid] and COc1ccc(OC2O[C@H](CCP(=O)(O)Cc3ccccc3C#N)[C@@H](O)[C@H](O)[C@@H]2O)cc1 (stereo partly drawn) [Compound A49, (2-cyanophenyl)methyl-[2-[(2R,3S,4S,5S)-3,4,5-trihydroxy-6-(4-methoxyphenoxy)tetrahydropyran-2-yl]ethyl]phosphinic acid] cannot be ordered by IC50: under 10 µM for the first, under 10 µM for the second.

O=P(O)(O)C1CC1[C@H]1O[C@H](Oc2ccccc2)[C@@H](O)[C@@H](O)[C@@H]1O (stereo partly drawn) [Compound A43, [2-[(2R,3S,4S,5S,6R)-3,4,5-trihydroxy-6-phenoxy-tetrahydropyran-2-yl]cyclopropyl]phosphonic acid] and NC[C@H]1O[C@H](Oc2ccccc2)[C@@H](O)[C@@H](O)[C@@H]1O [Compound A2, (2R,3S,4S,5S,6R)-2-(aminomethyl)-6-phenoxytetrahydro-2H-pyran-3,4,5-triol] fall in the same range of IC50: 10 to 100 µM for the first, 10 to 100 µM for the second.

First: C#CCOc1cccc(CP(=O)(O)CC[C@H]2OC(Oc3ccc(OC)cc3)[C@@H](O)[C@@H](O)[C@@H]2O)c1 (stereo partly drawn) [Compound A59, (3-prop-2-ynoxyphenyl)methyl-[2-[(2R,3S,4S,5S)-3,4,5-trihydroxy-6-(4-methoxyphenoxy)tetrahydropyran-2-yl]ethyl]phosphinic acid]
Second: COc1ccc(O[C@H]2O[C@H](CCP(=O)(O)Cc3c(F)cc(F)cc3F)[C@@H](O)[C@H](O)[C@@H]2O)cc1 [Compound A55, (2,4,6-trifluorobenzyl) (2-((2R,3S,4S,5S)-3,4,5-trihydroxy-6-(4-methoxyphenoxy)tetrahydro-2H-pyran-2-yl)ethyl)phosphinic acid]
The IC50 of the first is lower: under 10 µM for the first, 10 to 100 µM for the second.

First: N#CNC(=O)CC[C@H]1O[C@H](Oc2ccccc2)[C@@H](O)[C@@H](O)[C@@H]1O [Compound A3, N-cyano-3-((2R,3S,4S,5S,6R)-3,4,5-trihydroxy-6-phenoxytetrahydro-2H-pyran-2-yl)propanamide]
Second: CC(=O)NS(=O)(=O)OC[C@H]1O[C@H](Oc2ccccc2)[C@@H](O)[C@@H](O)[C@@H]1O [Compound A4, ((2R,3S,4S,5S,6R)-3,4,5-trihydroxy-6-phenoxytetrahydro-2H-pyran-2-yl)methyl acetylsulfamate]
The IC50 of the first is lower: 10 to 100 µM for the first, 100 to 300 µM for the second.

First: NC[C@H]1O[C@H](O)[C@@H](O)[C@@H](O)[C@@H]1O [Compound A41, (2S,3S,4S,5S,6R)-6-(aminomethyl)tetrahydro-2H-pyran-2,3,4,5-tetraol hydrochloride]
Second: O=P(O)(O)CC[C@H]1O[C@H](Oc2ccc3c(c2)Cc2ccccc2-3)[C@@H](O)[C@@H](O)[C@@H]1O [Compound A19, (2-((2R,3S,4S,5S,6R)-6-((9H-fluoren-2-yl)oxy)-3,4,5-trihydroxytetrahydro-2H-pyran-2-yl)ethyl)phosphonic acid]
The IC50 of the first is higher: 10 to 100 µM for the first, under 10 µM for the second.

CC(C)(C)OC(=O)N1CCC(n2cc([C@H]3O[C@H](CCP(=O)(O)O)[C@@H](O)[C@H](O)[C@@H]3O)nn2)CC1 [Compound A85, (2-((2R,3S,4S,5S,6R)-6-(1-(1-(tert-butoxycarbonyl)piperidin-4-yl)-1H-1,2,3-triazol-4-yl)-3,4,5-trihydroxytetrahydro-2H-pyran-2-yl)ethyl)phosphonic acid] showed an IC50 of under 10 µM.
